Reference: patent publication US20070105837A1, “Novel derivatives of 4a,5,9,10,11,12-hexahydrobenzofuro[3a,3,2][2]-benzazepine, method for the production thereof and use thereof in the production of medicaments” (priority 2003, published 2007)
Counter-ions that a name gives are not always drawn.

Molecular target: butyrylcholinesterase (Homo sapiens, UniProt P06276)
Assay: biochemical
Conditions: not given

Sequence of butyrylcholinesterase (P06276 29-602): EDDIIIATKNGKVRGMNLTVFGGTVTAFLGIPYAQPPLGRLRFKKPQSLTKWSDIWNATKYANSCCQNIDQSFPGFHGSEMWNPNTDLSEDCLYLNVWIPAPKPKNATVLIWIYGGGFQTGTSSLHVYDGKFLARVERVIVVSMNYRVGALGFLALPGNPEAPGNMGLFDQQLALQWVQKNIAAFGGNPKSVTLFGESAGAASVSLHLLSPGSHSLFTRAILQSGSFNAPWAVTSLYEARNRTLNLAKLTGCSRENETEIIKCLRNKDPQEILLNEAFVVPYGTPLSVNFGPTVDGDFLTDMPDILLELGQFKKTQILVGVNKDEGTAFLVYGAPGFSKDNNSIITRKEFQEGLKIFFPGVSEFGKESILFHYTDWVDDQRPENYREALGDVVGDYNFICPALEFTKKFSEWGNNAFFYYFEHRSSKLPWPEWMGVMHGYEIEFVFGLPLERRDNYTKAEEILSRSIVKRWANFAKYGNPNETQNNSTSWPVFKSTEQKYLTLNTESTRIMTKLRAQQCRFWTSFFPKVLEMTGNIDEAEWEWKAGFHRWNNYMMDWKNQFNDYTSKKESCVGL

Row | Compound | IC50
1 | CCN1CC[C@]23C=C[C@H](O)C[C@H]2Oc2c(OC)ccc(c23)C1 [Example 26, (4aR,6R,8aR)-4a,5,9,10,11,12-hexahydro-3-methoxy-11-ethyl-6H-[1]benzofuro[3a,3,2,ef][2]benzazepin-6-ol] | > 100 µM
2 | COc1ccc2c3c1O[C@H]1C[C@@H](O)C=C[C@@]31CCN(Cc1ccc(Br)cc1)C2 [Example 43, (4aS,6R,8aS)-11-(4-brombenzyl)-4a,5,9,10,11,12-hexahydro-3-methoxy-6H-[1]benzofuro[3a,3,2-ef][2]benzazepin-6-ol] | 0.0006 µM
3 | COc1ccc2c3c1O[C@@H]1C[C@H](O)C=C[C@]31CC[N+](C)=C2 [Example 55, (4aR,6S,8aR)-6-hydroxy-3-methoxy-11-methyl-4a,5,9,10-tetrnhydro-6H-benzofuro[3a,3,2-eq][2]benzazepinium bromide] | > 100 µM
4 | C=C(C)CN1CC[C@@]23C=C[C@H](O)C[C@@H]2Oc2c(OC)ccc(c23)C1 [Example 46, (4aS,6R,8aS)-4a,5,9,10,11,12-hexahydro-3-methoxy-11-(2-methyl-prop-2-enyl)-6H-[1]benzofuro[3a,3,2-ef][2]benzazepin-6-ol, hydrochloride] | 0.34 µM
5 | COc1ccc2c3c1O[C@@H]1C[C@@H](O)C=C[C@]31CC[N+](C)=C2 [Example 56, (4aR,6R,8aR)-6-hydroxy-3-methoxy-11-methyl-4a,5,9,10-tetrahydro-6H-benzofuro[3a,3,2-ef][2]benzazepineium bromide] | > 100 µM
6 | COc1ccc2c3c1O[C@H]1C[C@@H](O)C=C[C@@]31CCN(CC(C)c1cccc(Oc3ccccc3)c1)C2 (stereo partly drawn) [Example 32, 2-((4aS,6R,8aS)-6-hydroxy-3-methoxy-5,6,9,10-tetrahydro-4aH-[1]benzofuro[3a,3,2-ef][2]benzazepine-11(12H)-yl)-1-methyl-1-(3-phenoxyphenyl)ethane hydrochloride] | 0.36 µM
7 | C=C(C)CN1CC[C@@]23C=C[C@@H](O)C[C@@H]2Oc2c(OC)ccc(c23)C1 [Example 17, (4aS,6S,SaS)-4a,5,9,10,11,12-hexahydro-3-methoxy-11-(2-methyl-prop-2-enyl)-6H-[1]benzofuro[3a,3,2-ef][2]benzazepin-6-ol] | > 100 µM

Same assay, conditions: concentration at which 50% inhibition occurs; read-out: Butyrylcholinesterase IC-50

Row | Compound | IC50
8 | (4aS,6S,8aS)-1-bromo-6-hydroxy-3-methoxy-4a,5, 9,10-tetrahydro-6N-[1]benzofuro[3a,3,2-et][2]benzazepine-11(12H)-thiocarbonic acid allylamide [Example 2] | > 100 µM

Same assay, conditions: read-out: Butyrylcholinesterase IC-50

Row | Compound | IC50
9 | CCOC(=O)CCN1CC[C@@]23C=C[C@H](O)C[C@@H]2Oc2c(OC)ccc(c23)C1 [Example 47, Ethyl-3-((4aS,6R,8aS)-6-hydroxy-3-methoxy-5,6,9,10-tetrahydro-4aH-[1]benzofuro[3a,3,2-ef][2]benzazepine-11(12H)-yl)propanoate, hydrochloride] | 51 µM
10 | COc1ccc2c3c1O[C@H]1C[C@@H](O)C=C[C@@]31CCN(C(=O)c1ccccc1)C2 [Example 33, (4aS,6R,8aS)-4a,5,9,10,11,12-hexahydro-3-methoxy-11-benzoyl-6H-[1]benzofuro[3a,3,2-ef][2]benzazepin-6-ol] | > 100 µM
11 | COc1ccc2c3c1O[C@H]1C=C(C(C)C)C=C[C@@]31CCN(C)C2 [Example 61, (4aS,8aS)-D5,6-4a,5,9,10,11,12-hexahydro-6-(isopropyl)-11-methyl-3-methoxy-6H-[1]benzofuro [3a,3,2-ef][2]benzazepine] | 9 µM
12 | COc1ccc2c3c1O[C@H]1C[C@@H](O)C=C[C@@]31CCN(CC(C)C(=O)c1ccc(C)cc1)C2 (stereo partly drawn) [Example 35, 3-[(4aS,6R,8aS)-6-hydroxy-3-methoxy-5,6,9,10-tetrahydro-4aH-[1]benzofuro[3a,3,2-ef][2]benzazepine-11(12H)-yl]-2-methyl-1(- 4-methylphenyl)propan-1-one, hydrochloride] | 0.4 µM
13 | C#CCN1CC[C@@]23C=C[C@@H](O)C[C@@H]2Oc2c(OC)ccc(c23)C1 [Example 18, (4aS,6S,8aS)-4a,5,9,10,11,12-hexahydro-3-methoxy-11-propargyl-6H-[1]benzofuro[3a,3,2-ef][2]benzazepin-6-ol] | > 100 µM
14 | COc1ccc2c3c1O[C@H]1C[C@H](O)C=C[C@@]31CCN(c1ncccn1)C2 [Example 16, (4aS,6S,8aS)-4a,5,9,10,11,12-hexahydro-3-methoxy-11-(2-pyrimidinyl)-6H-[1]benzofuro[3a,3,2-ef][2]benzazepin-6-ol] | > 100 µM
15 | COc1ccc2c3c1O[C@H]1C[C@@H](O)C=C[C@@]31CCN(C(=O)c1ccc(Br)cc1)C2 [Example 41, (4aS,6R,8aS)-4a,5,9,10,11,12-hexahydro-3-methoxy-11-(4-bromo-benzoyl)-6H-[1]benzofuro[3a,3,2-ef][2]benzazepin-6-ol] | 30 µM
16 | CCN(CC)CC(=O)N1CC[C@@]23C=C[C@H](O)C[C@@H]2Oc2c(OC)ccc(c23)C1 [Example 49, 1-((4aS,6R,8aS)-6-hydroxy-3-methoxy-5,6,9,10-tetrahydro-4aH-[1]benzofuro[3a,3,2-ef][2]benzazepine-11(12H)-yl]-2-(diethylamino) ethan-1-one] | 40 µM
17 | COc1cc(Br)c2c3c1O[C@@H]1C[C@H](O)C=C[C@]31CCN(C(=O)CN1CCN(C)CC1)C2 [Example 7, 1-[(4aR,6S,8aR)-1-bromo-6-hydroxy-3-methoxy-5,6,9,10-tetrahydro-4aH-[1]benzofuro[3a,3,2-ef][2]benzazepine-11(12H)-yl]-2-(4-methylpiperazinyl)ethan-1-one] | > 100 µM
18 | COc1ccc2c3c1O[C@H]1C[C@H](O)C=C[C@@]31CCN(CC=C(C)C)C2 [Example 22, (4aS,6S,8aS)-4a,5,9,10,11,12-hexahydro-3-methoxy-11-(3-Methylbut-2-en-1-yl)-6H-[1]benzofuro[3a,3,2-ef][2]benzazepin-6-ol] | 20 µM
19 | COc1ccc2c3c1O[C@H]1C[C@@H](O)C=C[C@@]31CCN(CCc1ccccc1Nc1c(Cl)cccc1Cl)C2 [Example 40, 1-((4aS,6R,8aS)-6-hydroxy-3-methoxy-5,6,9,10-tetrahydro-4aH-[1]benzofuro[3a,3,2-ef][2]benzazepine-11(12H)-yl)-2-[2-(2,6-dichloranilino)]-phenylethane] | 1.3 µM
20 | COc1ccc2c3c1O[C@H]1C[C@@H](O)C=C[C@@]31CCN(C(=O)CN1CCOCC1)C2 [Example 48, 1-[(4aS,6R,8aS)-6-hydroxy-3-methoxy-5,6,9,10-tetrahydro-4aH-[1]benzofuro[3a,3,2-ef][2]benzazepine-11(12H)-yl]-2-(4-morpholinyl) ethan-1-one] | 3.8 µM
21 | C=CCNC(=S)N1CC[C@@]23C=C[C@@H](O)C[C@@H]2Oc2c(OC)cc(Br)c(c23)C1 [Example 12, (4aS,6R,8aS)-1-bromo-6-hydroxy-3-methoxy-4a,5,9,10-tetrahydro-6H-[1]benzofuro[3a,3,2-ef][2]benzazepine-11(12H)-thiocarbonic acid allylamide] | 11 µM
22 | COc1ccc2c3c1O[C@H]1C[C@@H](O)C=C[C@@]31CCN(CCCN(C)C)C2 [Example 52, (4aS,6R,8aS)-11-((3-dimethylamino)propyl)-3-methoxy-5,6,9,10,11,12-hexahydro-4aH-[1]benzofuro[3a,3,2-ef][2]benzazepin-6-ol] | 2.1 µM
23 | CCOC(=O)CN1CC[C@@]23C=C[C@H](O)C[C@@H]2Oc2c(OC)ccc(c23)C1 [Example 44, Ethyl-2-((4aS,6R,8aS)-6-hydroxy-3-methoxy-5,6,9,10-tetrahydro-4aH-[1]benzofuro[3a,3,2-ef][2]benzazepine-11(12H)-yl)acetate] | 42 µM
24 | COc1ccc2c3c1O[C@H]1C[C@@H](O)C=C[C@@]31CCN(C(=O)CCN1CCCC1)C2 [Example 38, 1-[(4aS,6R,8aS)-6-hydroxy-3-methoxy-5,6,9,10-tetrahydro-4aH-[1]benzofuro[3a,3,2-ef][2]benzazepine-11(12H)-yl]-3-(1-pyrrolidyl) propan-1-one] | 2.4 µM
25 | COc1ccc2c3c1O[C@H]1C[C@@H](O)C=C[C@@]31CCN(C(=O)CCl)C2 [Example 54, 1-[(4aS,6R,8aS)-6-hydroxy-3-methoxy-5,6,9,10-tetrahydro-4aH-[1]benzofuro[3a,3,2-ef][2]benzazepine-11(12H)-yl]-2-chloroethan-1-one] | > 100 µM
26 | COc1ccc2c3c1O[C@H]1C[C@H](O)C=C[C@@]31CCN(CCN1CCOCC1)C2 [Example 15, (4aS,6S,8aS)-4a,5,9,10,11,12-hexahydro-11-(2-(morpholin-4-yl)-ethyl)-3-methoxy-6H-[1]benzofuro[3a,3,2-ef][2]benzazepin-6-ol] | > 100 µM
27 | COc1ccc2c3c1O[C@H]1C[C@H](O)C=C[C@@]31CCN(C(=O)c1ccccc1)C2 [Example 19, (4aS,6S,8aS)-4a,5,9,10,11,12-hexahydro-3-methoxy-11-benzoyl-6H-[1]benzafuro[3a,3,2-ef][2]benzazepin-6-ol] | > 100 µM
28 | COc1ccc2c3c1O[C@H]1C[C@@H](O)C=C[C@@]31CCN(C(=O)NC1CCCCC1)C2 [Example 53, (4aS,6R,8aS)-N11-cydohexyl-6-hydroxy-3-methoxy-5,6,9,10-tetrahydro-4aH-[1]benzofuro[3a, 3,2-ef][2]benzazepine-11(12H)-carbonic acid isopropylamide] | > 100 µM
29 | COc1ccc2c3c1O[C@H]1C[C@@H](O)C=C[C@@]31CCN(C(=O)CN1CCCCC1)C2 [Example 36, 1-[(4aS,6R,8aS)-6-hydroxy-3-methoxy-5,6,9,10-tetrahydro-4aH-[1]benzofuro[3a,3,2-ef][2]benzazepine-11(12H)-yl]-2-(1-piperidyl)ethan-1-one] | > 100 µM

Molecular target: acetylcholinesterase (Homo sapiens, UniProt P22303)
Assay: biochemical
Conditions: not given

Sequence of acetylcholinesterase (P22303 32-614, species assumed): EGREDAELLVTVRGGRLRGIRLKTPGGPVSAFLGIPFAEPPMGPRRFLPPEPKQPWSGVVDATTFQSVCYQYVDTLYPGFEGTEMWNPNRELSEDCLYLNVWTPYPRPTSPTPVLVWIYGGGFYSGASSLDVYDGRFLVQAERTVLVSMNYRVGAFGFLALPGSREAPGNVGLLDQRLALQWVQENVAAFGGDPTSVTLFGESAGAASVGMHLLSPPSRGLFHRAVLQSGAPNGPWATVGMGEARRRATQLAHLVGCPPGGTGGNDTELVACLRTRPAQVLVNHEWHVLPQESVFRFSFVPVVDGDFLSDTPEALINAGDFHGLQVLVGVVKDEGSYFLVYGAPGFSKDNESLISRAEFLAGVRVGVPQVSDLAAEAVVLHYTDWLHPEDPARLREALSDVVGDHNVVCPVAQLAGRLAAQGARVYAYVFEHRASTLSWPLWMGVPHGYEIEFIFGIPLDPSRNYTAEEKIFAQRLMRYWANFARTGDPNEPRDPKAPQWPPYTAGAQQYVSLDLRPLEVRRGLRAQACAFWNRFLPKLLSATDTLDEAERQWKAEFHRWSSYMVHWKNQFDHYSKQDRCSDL

Row | Compound | IC50
30 | CCN1CC[C@]23C=C[C@H](O)C[C@H]2Oc2c(OC)ccc(c23)C1 [Example 26, (4aR,6R,8aR)-4a,5,9,10,11,12-hexahydro-3-methoxy-11-ethyl-6H-[1]benzofuro[3a,3,2,ef][2]benzazepin-6-ol] | > 100 µM

Same assay, conditions: read-out: Acetylcholinesterase IC-50

Row | Compound | IC50
31 | COc1ccc2c3c1O[C@H]1C=C(C(C)C)C=C[C@@]31CCN(C)C2 [Example 61, (4aS,8aS)-D5,6-4a,5,9,10,11,12-hexahydro-6-(isopropyl)-11-methyl-3-methoxy-6H-[1]benzofuro [3a,3,2-ef][2]benzazepine] | > 100 µM
32 | C#CCN1CC[C@@]23C=C[C@@H](O)C[C@@H]2Oc2c(OC)ccc(c23)C1 [Example 18, (4aS,6S,8aS)-4a,5,9,10,11,12-hexahydro-3-methoxy-11-propargyl-6H-[1]benzofuro[3a,3,2-ef][2]benzazepin-6-ol] | > 100 µM
33 | COc1ccc2c3c1O[C@H]1C[C@H](O)C=C[C@@]31CCN(c1ncccn1)C2 [Example 16, (4aS,6S,8aS)-4a,5,9,10,11,12-hexahydro-3-methoxy-11-(2-pyrimidinyl)-6H-[1]benzofuro[3a,3,2-ef][2]benzazepin-6-ol] | > 100 µM
34 | COc1cc(Br)c2c3c1O[C@@H]1C[C@H](O)C=C[C@]31CCN(CCCN1CCN(C)CC1)C2 [Example 8, (4aR,6R,8aR)-11-(3-(4-methylpiperazine)-1-yl-propyl)-3-methoxy-5,6,9,10,11,12-hexahydro-4aH-[1]benzofuro[3a,3,2-ef][2]benzazepin-6-oI, Trihydrochloride] | > 100 µM
